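Exposure lasted 48 hours, with cells grown in 96-well plates and compounds tested at five concentrations. The concentration for full growth arrest is given as TGI.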
Tests used:
Test in all cases: NCI tumour cell line growth inhibition, 48 h
XF 498 CNS = test system: XF 498 CNS
U251 CNS = test system: U251 CNS
CAKI-1 renal = test system: CAKI-1 renal
ACHN renal = test system: ACHN renal
OVCAR-4 ovarian = test system: OVCAR-4 ovarian
HOP-18 NSCLC = test system: HOP-18 NSCLC
SNB-19 CNS = test system: SNB-19 CNS
SW-620 colon = test system: SW-620 colon
NCI-H23 lung = test system: NCI-H23 lung
A549 NSCLC = test system: A549 NSCLC
DMS 273 small cell lung = test system: DMS 273 small cell lung
EKVX NSCLC = test system: EKVX NSCLC
K-562 leukemia = test system: K-562 leukemia
SK-MEL-5 melanoma = test system: SK-MEL-5 melanoma
TK-10 renal = test system: TK-10 renal
MOLT-4 leukemia = test system: MOLT-4 leukemia
LOX IMVI melanoma = test system: LOX IMVI melanoma
HCT-116 colon = test system: HCT-116 colon
RXF-631 renal = test system: RXF-631 renal
CCRF-CEM leukemia = test system: CCRF-CEM leukemia
OVCAR-5 ovarian = test system: OVCAR-5 ovarian
SF-295 CNS = test system: SF-295 CNS
SK-MEL-28 melanoma = test system: SK-MEL-28 melanoma
UO-31 renal = test system: UO-31 renal
DMS 114 small cell lung = test system: DMS 114 small cell lung
M19-MEL melanoma = test system: M19-MEL melanoma
HT29 colon = test system: HT29 colon
COLO 205 colon = test system: COLO 205 colon
UACC-62 melanoma = test system: UACC-62 melanoma
UACC-257 melanoma = test system: UACC-257 melanoma
KM20L2 colon = test system: KM20L2 colon
SK-OV-3 ovarian = test system: SK-OV-3 ovarian
SNB-78 CNS = test system: SNB-78 CNS
IGROV1 ovarian = test system: IGROV1 ovarian
OVCAR-8 ovarian = test system: OVCAR-8 ovarian
SNB-75 CNS = test system: SNB-75 CNS
NCI-H460 lung = test system: NCI-H460 lung
DLD-1 colon = test system: DLD-1 colon
HL-60(TB) leukemia = test system: HL-60(TB) leukemia
RXF 393 renal = test system: RXF 393 renal
HCT-15 colon = test system: HCT-15 colon
RPMI-8226 leukemia = test system: RPMI-8226 leukemia
HOP-92 NSCLC = test system: HOP-92 NSCLC
SN12C renal = test system: SN12C renal
M14 melanoma = test system: M14 melanoma
SF-539 CNS = test system: SF-539 CNS
SR leukemia = test system: SR leukemia
MALME-3M melanoma = test system: MALME-3M melanoma
786-0 renal = test system: 786-0 renal
KM12 colon = test system: KM12 colon
LXFL 529 NSCLC = test system: LXFL 529 NSCLC
SF-268 CNS = test system: SF-268 CNS
NCI-H522 lung = test system: NCI-H522 lung
OVCAR-3 ovarian = test system: OVCAR-3 ovarian
NCI-H226 lung = test system: NCI-H226 lung
HOP-62 NSCLC = test system: HOP-62 NSCLC
HCC-2998 colon = test system: HCC-2998 colon
SK-MEL-2 melanoma = test system: SK-MEL-2 melanoma
A498 renal = test system: A498 renal

Measured: TGI

COc1cc(C2C(C(=O)O)=C(CO)Oc3cc4c(cc32)OCO4)cc(OC)c1OC (configuration not stated)
not listed: SF-539 CNS | SR leukemia | MALME-3M melanoma | 786-0 renal | KM12 colon | LXFL 529 NSCLC | SF-268 CNS | NCI-H522 lung | OVCAR-3 ovarian | NCI-H226 lung | HOP-62 NSCLC | HCC-2998 colon | SK-MEL-2 melanoma | A498 renal
> 100 µM: all other assays above

CCc1ccccc1N1C(=O)C(=O)C(c2nc3ccccc3s2)C(=O)C1=O
not listed: DMS 273 small cell lung | COLO 205 colon | SNB-75 CNS | A498 renal
> 100 µM: all other assays above

COC(=O)C(C(=O)C(=O)Nc1nc(=S)[nH][nH]1)c1csc(N)n1 (configuration not stated)
not listed: DMS 114 small cell lung | HOP-92 NSCLC
> 100 µM: all other assays above
